# Values quoted from earlier work, collected in patent publication US20240285773A1, “METHODS OF TREATING MYELODYSPLASTIC SYNDROME AND MONITORING THE TREATMENT” (Geron Corporation, priority 2023, published 2024).
# System: patients with del(5q) MDS
# Settings: cited from earlier work
smiles,measurement,value
"Nc1cccc2c1CN(C1CCC(=O)NC1=O)C2=O (stereo not shown) [lenalidomide, 3-(4-Amino-1-oxoisoindolin-2-yl)piperidine-2,6-dione]","Transfusion independence, proportion of patients",two-thirds
